Read-outs that look alike come from different tables or passages of the source.
Assays:
Assay in all cases: KinomeScan kinase panel, single concentration 10 µM
Type in all cases: binding
[1] = molecular target: T1, KinomeScan kinase panel (Homo sapiens, UniProt P00533, L861Q); settings: EGFR(L861Q), 10 µM
T1 construct: purchased DiscoveRx (KinomeScan)

[2] = molecular target: T2, KinomeScan kinase panel (Homo sapiens, UniProt Q9UQB9); settings: AURKC, 10 µM; read-out: score (%)
T2 construct: purchased DiscoveRx (KinomeScan)
T2 sequence (Q9UQB9 1-309): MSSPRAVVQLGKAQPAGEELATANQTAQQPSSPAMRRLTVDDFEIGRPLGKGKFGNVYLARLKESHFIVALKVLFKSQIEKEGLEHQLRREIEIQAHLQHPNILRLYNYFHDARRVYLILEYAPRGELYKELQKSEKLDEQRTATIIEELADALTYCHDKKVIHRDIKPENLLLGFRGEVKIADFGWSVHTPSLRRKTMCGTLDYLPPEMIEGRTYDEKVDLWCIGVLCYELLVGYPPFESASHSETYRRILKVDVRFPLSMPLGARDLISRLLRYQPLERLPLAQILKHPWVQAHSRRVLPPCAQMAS

[3] = molecular target: T3, KinomeScan kinase panel (Homo sapiens, UniProt Q16513); settings: PKN2, 10 µM; read-out: score (%)
T3 construct: purchased DiscoveRx (KinomeScan)

[4] = molecular target: T4, KinomeScan kinase panel (Homo sapiens, UniProt Q9H4B4); settings: read-out: score (%)
T4 construct: purchased DiscoveRx (KinomeScan)

[5] = molecular target: T5, KinomeScan kinase panel (Homo sapiens, UniProt P11362); settings: FGFR1, 10 µM; read-out: score (%)
T5 construct: purchased DiscoveRx (KinomeScan)
T5 sequence (P11362 22-822): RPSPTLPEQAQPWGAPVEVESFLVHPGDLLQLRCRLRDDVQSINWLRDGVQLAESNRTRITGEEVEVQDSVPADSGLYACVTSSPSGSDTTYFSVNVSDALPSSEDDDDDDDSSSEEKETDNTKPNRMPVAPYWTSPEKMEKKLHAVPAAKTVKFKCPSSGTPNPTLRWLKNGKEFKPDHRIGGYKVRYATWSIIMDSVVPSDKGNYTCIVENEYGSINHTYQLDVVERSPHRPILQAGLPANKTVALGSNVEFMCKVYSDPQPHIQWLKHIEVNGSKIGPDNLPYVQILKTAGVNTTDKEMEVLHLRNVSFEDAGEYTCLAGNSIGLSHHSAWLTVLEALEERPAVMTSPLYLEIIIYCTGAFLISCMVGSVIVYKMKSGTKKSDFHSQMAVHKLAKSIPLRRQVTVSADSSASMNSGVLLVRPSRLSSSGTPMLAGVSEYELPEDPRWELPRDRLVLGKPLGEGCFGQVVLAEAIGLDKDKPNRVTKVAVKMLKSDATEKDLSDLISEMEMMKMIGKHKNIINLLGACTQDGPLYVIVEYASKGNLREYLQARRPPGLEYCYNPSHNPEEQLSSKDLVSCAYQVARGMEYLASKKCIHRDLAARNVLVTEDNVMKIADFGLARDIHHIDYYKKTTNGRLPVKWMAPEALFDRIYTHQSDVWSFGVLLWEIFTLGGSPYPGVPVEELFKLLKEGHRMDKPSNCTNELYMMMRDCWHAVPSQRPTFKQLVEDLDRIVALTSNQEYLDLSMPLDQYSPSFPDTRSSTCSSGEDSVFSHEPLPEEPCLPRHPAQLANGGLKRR

[6] = molecular target: T6, KinomeScan kinase panel (Homo sapiens, UniProt P06213); settings: INSR, 10 µM; read-out: score (%)
T6 construct: purchased DiscoveRx (KinomeScan)

[7] = molecular target: T7, KinomeScan kinase panel (Homo sapiens, UniProt P27037); settings: ACVR2A, 10 µM; read-out: score (%)
T7 construct: purchased DiscoveRx (KinomeScan)
T7 sequence (P27037 20-513): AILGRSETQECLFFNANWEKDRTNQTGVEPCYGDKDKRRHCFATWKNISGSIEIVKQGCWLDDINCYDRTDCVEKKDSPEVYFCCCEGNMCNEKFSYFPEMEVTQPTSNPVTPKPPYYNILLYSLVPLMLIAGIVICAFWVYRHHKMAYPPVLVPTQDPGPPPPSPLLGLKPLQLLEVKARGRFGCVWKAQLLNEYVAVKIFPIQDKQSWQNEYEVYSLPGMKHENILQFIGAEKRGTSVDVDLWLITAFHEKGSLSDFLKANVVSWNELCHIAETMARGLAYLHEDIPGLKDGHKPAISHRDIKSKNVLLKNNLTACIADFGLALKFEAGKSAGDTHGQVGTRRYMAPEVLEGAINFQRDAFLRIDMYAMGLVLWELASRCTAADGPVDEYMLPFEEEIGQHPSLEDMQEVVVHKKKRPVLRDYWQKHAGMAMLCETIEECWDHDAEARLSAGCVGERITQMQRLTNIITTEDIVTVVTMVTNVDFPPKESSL

[8] = molecular target: T8, KinomeScan kinase panel (Homo sapiens, UniProt Q16584); settings: MLK3, 10 µM
T8 construct: purchased DiscoveRx (KinomeScan)
T8 sequence (Q16584 whole entry): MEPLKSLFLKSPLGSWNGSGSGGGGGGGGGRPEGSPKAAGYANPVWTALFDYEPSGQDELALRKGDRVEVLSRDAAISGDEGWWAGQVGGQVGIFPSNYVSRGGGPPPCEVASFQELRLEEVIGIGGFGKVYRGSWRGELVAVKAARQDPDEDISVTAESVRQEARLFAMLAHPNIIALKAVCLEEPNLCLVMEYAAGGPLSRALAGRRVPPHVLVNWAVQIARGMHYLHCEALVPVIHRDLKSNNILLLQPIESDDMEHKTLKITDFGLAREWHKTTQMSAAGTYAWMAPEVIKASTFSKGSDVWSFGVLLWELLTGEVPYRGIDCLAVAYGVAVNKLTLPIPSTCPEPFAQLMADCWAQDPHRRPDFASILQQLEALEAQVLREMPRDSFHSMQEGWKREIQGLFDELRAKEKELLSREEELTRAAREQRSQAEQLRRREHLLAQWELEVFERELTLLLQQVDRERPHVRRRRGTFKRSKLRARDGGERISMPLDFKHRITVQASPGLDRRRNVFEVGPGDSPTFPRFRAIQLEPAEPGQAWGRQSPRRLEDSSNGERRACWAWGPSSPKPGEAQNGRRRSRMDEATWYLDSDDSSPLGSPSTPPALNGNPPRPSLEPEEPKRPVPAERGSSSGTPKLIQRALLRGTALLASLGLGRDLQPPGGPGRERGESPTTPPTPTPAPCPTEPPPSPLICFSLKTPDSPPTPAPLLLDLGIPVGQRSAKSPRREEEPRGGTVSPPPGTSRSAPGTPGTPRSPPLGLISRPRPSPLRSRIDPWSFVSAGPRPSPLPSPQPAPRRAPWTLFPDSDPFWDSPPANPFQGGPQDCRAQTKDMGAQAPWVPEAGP

[9] = molecular target: T9, KinomeScan kinase panel (Homo sapiens, UniProt Q13043); settings: MST1, 10 µM
T9 construct: purchased DiscoveRx (KinomeScan)
T9 sequence (Q13043 1-487): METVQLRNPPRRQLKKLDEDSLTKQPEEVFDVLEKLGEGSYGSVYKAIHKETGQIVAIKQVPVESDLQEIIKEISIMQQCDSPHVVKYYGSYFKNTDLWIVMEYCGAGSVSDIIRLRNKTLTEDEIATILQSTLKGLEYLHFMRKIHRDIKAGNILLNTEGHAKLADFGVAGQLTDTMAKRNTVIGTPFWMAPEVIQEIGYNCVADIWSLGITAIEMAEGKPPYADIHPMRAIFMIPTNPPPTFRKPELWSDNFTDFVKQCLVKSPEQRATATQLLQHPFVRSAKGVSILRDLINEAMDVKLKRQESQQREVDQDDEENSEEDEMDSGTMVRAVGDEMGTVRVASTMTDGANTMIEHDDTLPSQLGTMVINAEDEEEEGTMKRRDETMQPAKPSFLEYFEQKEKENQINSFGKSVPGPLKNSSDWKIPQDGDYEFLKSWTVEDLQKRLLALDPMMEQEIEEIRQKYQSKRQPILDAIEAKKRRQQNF

[10] = molecular target: T10, KinomeScan kinase panel (Homo sapiens, UniProt Q13177); settings: PAK2, 10 µM; read-out: score (%)
T10 construct: purchased DiscoveRx (KinomeScan)
T10 sequence (Q13177 whole entry): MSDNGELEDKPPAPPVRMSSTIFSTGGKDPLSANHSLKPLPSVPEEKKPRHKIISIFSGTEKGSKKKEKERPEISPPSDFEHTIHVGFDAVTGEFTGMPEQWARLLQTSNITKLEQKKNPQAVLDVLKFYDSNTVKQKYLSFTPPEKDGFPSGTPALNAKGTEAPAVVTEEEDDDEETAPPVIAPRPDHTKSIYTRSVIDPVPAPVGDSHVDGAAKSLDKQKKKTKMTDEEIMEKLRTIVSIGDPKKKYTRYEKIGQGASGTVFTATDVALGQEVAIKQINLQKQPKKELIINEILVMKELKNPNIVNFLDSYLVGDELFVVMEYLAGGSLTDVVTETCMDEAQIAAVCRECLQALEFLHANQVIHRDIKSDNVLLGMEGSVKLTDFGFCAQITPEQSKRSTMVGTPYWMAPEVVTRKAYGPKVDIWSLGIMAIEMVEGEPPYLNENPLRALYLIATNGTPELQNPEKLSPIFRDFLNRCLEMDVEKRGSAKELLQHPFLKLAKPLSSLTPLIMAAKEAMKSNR

[11] = molecular target: T11, KinomeScan kinase panel (Homo sapiens, UniProt P37173); settings: read-out: score (%)
T11 construct: purchased DiscoveRx (KinomeScan)

[12] = molecular target: T12, KinomeScan kinase panel (Homo sapiens, UniProt Q13153); settings: PAK1, 10 µM; read-out: score (%)
T12 construct: purchased DiscoveRx (KinomeScan)
T12 sequence (Q13153 whole entry): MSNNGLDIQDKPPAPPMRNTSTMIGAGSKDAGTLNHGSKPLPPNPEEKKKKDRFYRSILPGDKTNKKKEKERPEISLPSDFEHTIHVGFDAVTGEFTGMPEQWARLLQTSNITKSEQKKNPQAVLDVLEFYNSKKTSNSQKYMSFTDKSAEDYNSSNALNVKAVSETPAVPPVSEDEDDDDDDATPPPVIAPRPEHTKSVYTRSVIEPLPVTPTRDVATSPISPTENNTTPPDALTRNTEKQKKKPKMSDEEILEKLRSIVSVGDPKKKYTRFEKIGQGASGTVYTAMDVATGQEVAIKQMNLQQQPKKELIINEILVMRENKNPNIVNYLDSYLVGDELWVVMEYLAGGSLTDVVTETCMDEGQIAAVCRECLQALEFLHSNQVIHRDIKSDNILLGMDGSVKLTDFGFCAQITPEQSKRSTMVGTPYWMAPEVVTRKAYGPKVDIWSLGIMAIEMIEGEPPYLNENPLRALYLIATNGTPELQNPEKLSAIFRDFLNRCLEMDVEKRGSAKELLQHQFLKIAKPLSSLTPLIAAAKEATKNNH

[13] = molecular target: T13, KinomeScan kinase panel (Homo sapiens, UniProt P04629); settings: 10 µM, read-out: score (%)
T13 construct: purchased DiscoveRx (KinomeScan)

[14] = molecular target: T14, KinomeScan kinase panel (Homo sapiens, UniProt P07332); settings: FES, 10 µM; read-out: score (%)
T14 construct: purchased DiscoveRx (KinomeScan)
T14 sequence (P07332 whole entry): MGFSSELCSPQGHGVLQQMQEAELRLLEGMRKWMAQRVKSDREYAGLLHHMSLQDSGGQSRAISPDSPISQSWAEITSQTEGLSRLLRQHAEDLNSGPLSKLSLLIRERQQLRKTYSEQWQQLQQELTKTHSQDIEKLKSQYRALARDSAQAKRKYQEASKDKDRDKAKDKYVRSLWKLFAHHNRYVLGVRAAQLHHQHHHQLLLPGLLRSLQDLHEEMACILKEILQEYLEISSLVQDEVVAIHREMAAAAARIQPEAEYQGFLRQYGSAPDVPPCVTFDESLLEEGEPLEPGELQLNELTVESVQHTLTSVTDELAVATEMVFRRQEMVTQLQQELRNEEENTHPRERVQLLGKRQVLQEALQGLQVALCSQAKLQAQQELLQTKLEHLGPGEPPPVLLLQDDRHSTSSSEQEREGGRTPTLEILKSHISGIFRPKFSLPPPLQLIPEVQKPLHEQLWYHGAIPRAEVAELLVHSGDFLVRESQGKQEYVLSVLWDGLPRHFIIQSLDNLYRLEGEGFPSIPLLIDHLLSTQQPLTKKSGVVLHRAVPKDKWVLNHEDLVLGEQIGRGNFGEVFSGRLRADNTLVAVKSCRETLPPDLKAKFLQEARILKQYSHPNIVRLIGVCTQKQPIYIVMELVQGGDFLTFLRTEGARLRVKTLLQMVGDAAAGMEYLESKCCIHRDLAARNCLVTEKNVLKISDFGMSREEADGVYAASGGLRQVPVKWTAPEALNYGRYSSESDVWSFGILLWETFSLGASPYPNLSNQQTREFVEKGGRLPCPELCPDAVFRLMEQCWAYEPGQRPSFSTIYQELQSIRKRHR

[15] = molecular target: T15, KinomeScan kinase panel (Homo sapiens, UniProt P31751); settings: AKT2, 10 µM; read-out: score (%)
T15 construct: purchased DiscoveRx (KinomeScan)
T15 sequence (P31751 whole entry): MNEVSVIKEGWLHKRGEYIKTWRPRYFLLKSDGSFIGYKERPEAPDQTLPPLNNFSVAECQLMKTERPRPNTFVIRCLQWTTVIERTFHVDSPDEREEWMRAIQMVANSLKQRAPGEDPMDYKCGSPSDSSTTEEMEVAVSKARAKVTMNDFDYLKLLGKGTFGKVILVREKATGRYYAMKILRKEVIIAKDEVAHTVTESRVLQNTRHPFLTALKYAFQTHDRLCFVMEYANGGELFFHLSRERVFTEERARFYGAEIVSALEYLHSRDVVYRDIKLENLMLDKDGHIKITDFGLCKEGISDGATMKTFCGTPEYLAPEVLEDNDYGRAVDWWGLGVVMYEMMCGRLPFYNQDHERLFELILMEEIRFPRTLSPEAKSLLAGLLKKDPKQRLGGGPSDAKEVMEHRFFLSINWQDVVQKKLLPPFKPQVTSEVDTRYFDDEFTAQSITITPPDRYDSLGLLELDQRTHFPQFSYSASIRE

[16] = molecular target: T16, KinomeScan kinase panel (Homo sapiens, UniProt O00506); settings: kinase YSK1; 10 µM; read-out: score (%)
T16 construct: purchased DiscoveRx (KinomeScan)
T16 sequence (O00506 whole entry): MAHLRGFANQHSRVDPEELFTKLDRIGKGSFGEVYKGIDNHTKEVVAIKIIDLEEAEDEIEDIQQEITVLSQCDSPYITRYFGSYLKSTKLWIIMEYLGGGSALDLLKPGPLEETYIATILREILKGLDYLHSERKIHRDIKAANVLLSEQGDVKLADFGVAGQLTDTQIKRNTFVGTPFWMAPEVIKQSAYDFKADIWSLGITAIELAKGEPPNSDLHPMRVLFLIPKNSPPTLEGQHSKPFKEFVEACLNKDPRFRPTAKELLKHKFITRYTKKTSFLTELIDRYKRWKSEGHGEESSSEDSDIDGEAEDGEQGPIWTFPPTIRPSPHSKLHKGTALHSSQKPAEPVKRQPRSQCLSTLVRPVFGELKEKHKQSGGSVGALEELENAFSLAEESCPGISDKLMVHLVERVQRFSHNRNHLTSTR

[17] = molecular target: T17, KinomeScan kinase panel (Homo sapiens, UniProt Q12851); settings: MAP4K2, 10 µM; read-out: score (%)
T17 construct: purchased DiscoveRx (KinomeScan)
T17 sequence (Q12851 1-820): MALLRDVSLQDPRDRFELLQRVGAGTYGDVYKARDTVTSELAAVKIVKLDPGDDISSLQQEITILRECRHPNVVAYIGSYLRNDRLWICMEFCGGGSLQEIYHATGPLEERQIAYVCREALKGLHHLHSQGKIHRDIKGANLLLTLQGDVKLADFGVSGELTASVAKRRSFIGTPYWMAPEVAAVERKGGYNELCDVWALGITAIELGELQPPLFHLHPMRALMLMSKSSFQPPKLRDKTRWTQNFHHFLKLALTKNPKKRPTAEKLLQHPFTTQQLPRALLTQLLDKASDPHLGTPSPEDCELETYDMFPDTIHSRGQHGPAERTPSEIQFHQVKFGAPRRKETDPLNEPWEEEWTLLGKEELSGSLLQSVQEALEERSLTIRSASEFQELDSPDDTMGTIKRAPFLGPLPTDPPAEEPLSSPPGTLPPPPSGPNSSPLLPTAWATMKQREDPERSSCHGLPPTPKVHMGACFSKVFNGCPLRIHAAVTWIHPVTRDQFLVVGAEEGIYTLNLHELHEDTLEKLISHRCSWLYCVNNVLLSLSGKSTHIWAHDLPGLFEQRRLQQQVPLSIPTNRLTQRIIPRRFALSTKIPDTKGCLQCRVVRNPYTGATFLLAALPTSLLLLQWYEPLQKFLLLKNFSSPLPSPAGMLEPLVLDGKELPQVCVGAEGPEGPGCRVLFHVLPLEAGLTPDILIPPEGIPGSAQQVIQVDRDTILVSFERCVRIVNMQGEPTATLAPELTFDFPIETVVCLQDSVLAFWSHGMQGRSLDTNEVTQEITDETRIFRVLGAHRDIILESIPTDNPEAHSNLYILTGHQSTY

[18] = molecular target: T18, KinomeScan kinase panel (Homo sapiens, UniProt Q13164); settings: ERK5, 10 µM; read-out: score (%)
T18 construct: purchased DiscoveRx (KinomeScan)

`CCN1CCN(Cc2ccc(NC(=O)c3ccc(C)c(NC(=O)c4cncc(-c5cccs5)c4)c3)cc2C(F)(F)F)CC1` [ALW-II-41-27] was tested, and the “score (%)” value [1] was 0%, the remaining binding at 10 µM [2] was greater than 30% and the remaining binding at 10 µM [3] was greater than 30%. The remaining binding at 10 µM ([4]; PLK3, 10 µM) was greater than 30%, the remaining binding at 10 µM [5] was 2.2% and the remaining binding at 10 µM [6] was 12%. For the same compound, the remaining binding at 10 µM [7] was greater than 30%, the “score (%)” value [8] was “nb (Hits values higher than 30% were considered negative (no binding: nb))” and the “score (%)” value [9] was 21%. It also gave a remaining binding at 10 µM [10] greater than 30%, a remaining binding at 10 µM ([11]; kinase TGFBR2, 10 µM) of 4.6% and a remaining binding at 10 µM [12] greater than 30%. It also gave a remaining binding at 10 µM ([13]; kinase TRKA) of 4.4%, a remaining binding at 10 µM [14] of 0.8% and a remaining binding at 10 µM [15] greater than 30%. For the same compound, the remaining binding at 10 µM [16] was greater than 30%, the remaining binding at 10 µM [17] was 0.6% and the remaining binding at 10 µM [18] was greater than 30%.
In the case of `CCN1CCN(Cc2ccc(NC(=O)c3ccc(C)c(/C=C/c4cnc5[nH]ccc5c4Cl)c3)cc2C(F)(F)F)CC1` [HG-6-63-01, (E)-3-(2-(4-chloro-1H-pyrrolo[2,3-b]pyridin-5-yl)vinyl)-N-(4-((4-ethylpiperazin-1-yl)methyl)-3-(trifluoromethyl)phenyl)-4-methylbenzamide], the “score (%)” value [1] is reported as 0%, the remaining binding at 10 µM [2] is reported as 0.65% and the remaining binding at 10 µM [3] is reported as 23%. It also gave a remaining binding at 10 µM ([4]; PLK3, 10 µM) greater than 30%, a remaining binding at 10 µM [5] of 0.7% and a remaining binding at 10 µM [6] greater than 30%. The remaining binding at 10 µM [7] was greater than 30%, the “score (%)” value [8] was 0.8% and the “score (%)” value [9] was 26%. For the same compound, the remaining binding at 10 µM [10] was greater than 30%, the remaining binding at 10 µM ([11]; TGFBR2, 10 µM) was 2.8% and the remaining binding at 10 µM [12] was greater than 30%. For the same compound, the remaining binding at 10 µM ([13]; TRKA) was 8.2%, the remaining binding at 10 µM [14] was 0.55% and the remaining binding at 10 µM [15] was greater than 30%. It also gave a remaining binding at 10 µM [16] greater than 30%, a remaining binding at 10 µM [17] of 0.25% and a remaining binding at 10 µM [18] greater than 30%.
In the case of `CCN1CCN(Cc2ccc(NC(=O)c3ccc(C)c(C#Cc4cccnc4)c3)cc2C(F)(F)F)CC1` [XMD15-44], the “score (%)” value [1] is reported as 0.2%, the remaining binding at 10 µM [2] is reported as 13% and the remaining binding at 10 µM [3] is reported as 36%. It also gave a remaining binding at 10 µM ([4]; kinase PLK3, 10 µM) of 90%, a remaining binding at 10 µM [5] of 0.25% and a remaining binding at 10 µM [6] greater than 30%. For the same compound, the remaining binding at 10 µM [7] was greater than 30%, the “score (%)” value [8] was 17% and the “score (%)” value [9] was 23%. It also gave a remaining binding at 10 µM [10] of 84%, a remaining binding at 10 µM ([11]; kinase TGFBR2, 10 µM) of 1.3% and a remaining binding at 10 µM [12] of 81%. The remaining binding at 10 µM ([13]; kinase TRKA) was 0.35%, the remaining binding at 10 µM [14] was 0.75% and the remaining binding at 10 µM [15] was 30%. The remaining binding at 10 µM [16] was 16%, the remaining binding at 10 µM [17] was 0% and the remaining binding at 10 µM [18] was greater than 30%.
